Measurements published in article PMC11198769, “Enhancement of transcription efficiency by TAR-Tat system increases the functional expression of human olfactory receptors” (PLOS ONE, 2024).

Tests used:
Assay in all cases: Comprehensive analysis (screening) of hORs against n-hexanal
Type in all cases: cell-based
OR2M3 = target: T1, OR2M3 (Homo sapiens, UniProt Q8NG83); conditions: OR2M3, 500 μM n-hexanal, with the TAR-Tat system (hOR/pHEK), n = 1
T1 construct: Lucy tag (N); expressed in transfected cells; host or cells: Flp-In T-REx-293 cells stably expressing RTP1S, Gαolf and Ric8-b
T1 sequence (Q8NG83 1-312): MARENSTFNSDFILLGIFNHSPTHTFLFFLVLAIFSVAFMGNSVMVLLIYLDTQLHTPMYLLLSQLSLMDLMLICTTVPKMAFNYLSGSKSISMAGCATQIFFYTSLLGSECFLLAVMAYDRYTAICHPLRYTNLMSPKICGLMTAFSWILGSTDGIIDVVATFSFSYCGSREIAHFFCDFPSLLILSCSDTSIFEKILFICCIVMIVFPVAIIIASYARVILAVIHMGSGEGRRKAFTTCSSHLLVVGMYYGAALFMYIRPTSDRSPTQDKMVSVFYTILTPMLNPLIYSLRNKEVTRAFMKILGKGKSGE
Method: (§1) Transfection was performed as described in the “hOR assay,” but 12.5 ng of 379 hOR plasmids (hOR/pBApo and hOR/pHEK) was transfected with the 12.5 ng pGlosensor^TM-22F cAMP biosensor plasmid (Promega) in 384 plates per well. After loading the GloSensor cAMP substrate and preincubation, the assay buffer was added (30 μL/well). After 10 min of equilibration, luminescence was measured (L0). Then, 50 mM n-hexanal, which was diluted with 10% DMSO/assay buffer, was added (4.7 μL/well). After 9 min, luminescence was measured (L9min). All the L9min values were subtracted by the L0 value (ΔL).

OR5K1 = target: T2, OR5K1 (Homo sapiens, UniProt Q8NHB7); conditions: OR5K1, 500 μM n-hexanal, with the TAR-Tat system (hOR/pHEK), n = 1
T2 construct: Lucy tag (N); FLAG (N); Rho tag (N); expressed in transfected cells; host or cells: Flp-In T-REx-293 cells stably expressing RTP1S, Gαolf and Ric8-b
T2 sequence (Q8NHB7 1-308): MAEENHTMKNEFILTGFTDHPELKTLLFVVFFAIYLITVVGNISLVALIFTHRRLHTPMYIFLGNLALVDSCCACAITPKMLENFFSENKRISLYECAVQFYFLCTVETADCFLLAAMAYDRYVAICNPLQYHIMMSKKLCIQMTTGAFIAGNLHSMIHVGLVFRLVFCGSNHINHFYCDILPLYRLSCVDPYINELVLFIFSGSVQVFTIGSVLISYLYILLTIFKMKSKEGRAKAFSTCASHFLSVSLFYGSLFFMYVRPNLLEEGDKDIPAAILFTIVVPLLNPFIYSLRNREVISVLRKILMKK
Method: as §1

OR1A1 = target: T3, OR1A1 (Homo sapiens, UniProt Q9P1Q5); conditions: OR1A1, 500 μM n-hexanal, n = 1
T3 construct: Lucy tag (N); FLAG (N); Rho tag (N); expressed in transfected cells; host or cells: Flp-In T-REx-293 cells stably expressing RTP1S, Gαolf and Ric8-b
T3 sequence (Q9P1Q5 1-309): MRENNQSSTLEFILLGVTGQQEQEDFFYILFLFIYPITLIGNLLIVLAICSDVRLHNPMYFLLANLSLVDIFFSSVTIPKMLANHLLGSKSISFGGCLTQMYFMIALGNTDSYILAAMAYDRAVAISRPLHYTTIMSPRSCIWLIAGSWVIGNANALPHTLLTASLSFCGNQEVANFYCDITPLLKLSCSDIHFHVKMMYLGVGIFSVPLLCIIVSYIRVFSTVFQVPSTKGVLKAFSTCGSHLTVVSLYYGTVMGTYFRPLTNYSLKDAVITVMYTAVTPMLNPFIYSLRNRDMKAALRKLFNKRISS
Method: as §1

OR2Z1 = target: T4, OR2Z1 (Homo sapiens, UniProt Q8NG97); conditions: OR2Z1, 500 μM n-hexanal, with the TAR-Tat system (hOR/pHEK), n = 1
T4 construct: Lucy tag (N); FLAG (N); Rho tag (N); expressed in transfected cells; host or cells: Flp-In T-REx-293 cells stably expressing RTP1S, Gαolf and Ric8-b
T4 sequence (Q8NG97 1-314): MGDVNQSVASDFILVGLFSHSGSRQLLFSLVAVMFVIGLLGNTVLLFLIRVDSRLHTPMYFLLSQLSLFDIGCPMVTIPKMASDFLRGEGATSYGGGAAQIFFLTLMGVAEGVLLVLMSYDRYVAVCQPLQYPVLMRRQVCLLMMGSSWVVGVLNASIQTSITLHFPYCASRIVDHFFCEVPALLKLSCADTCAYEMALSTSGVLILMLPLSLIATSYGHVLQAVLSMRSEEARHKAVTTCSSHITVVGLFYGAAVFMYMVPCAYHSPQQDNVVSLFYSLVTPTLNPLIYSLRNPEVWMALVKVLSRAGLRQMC
Method: as §1

OR5P3 = target: T5, OR5P3 (Homo sapiens, UniProt Q8WZ94); conditions: OR5P3, 500 μM n-hexanal, n = 1
T5 construct: Lucy tag (N); FLAG (N); Rho tag (N); expressed in transfected cells; host or cells: Flp-In T-REx-293 cells stably expressing RTP1S, Gαolf and Ric8-b
T5 sequence (Q8WZ94 1-311): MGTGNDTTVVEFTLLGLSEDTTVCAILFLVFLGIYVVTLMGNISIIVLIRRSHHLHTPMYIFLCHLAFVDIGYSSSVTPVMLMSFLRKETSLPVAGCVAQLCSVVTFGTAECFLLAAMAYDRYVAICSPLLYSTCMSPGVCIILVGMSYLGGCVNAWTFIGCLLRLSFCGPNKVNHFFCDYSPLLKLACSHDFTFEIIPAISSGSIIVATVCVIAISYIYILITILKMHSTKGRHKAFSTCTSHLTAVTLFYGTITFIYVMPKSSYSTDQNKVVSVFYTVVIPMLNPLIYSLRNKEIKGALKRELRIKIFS
Method: as §1

OR5M3 = target: T6, OR5M3 (Homo sapiens, UniProt Q8NGP4); conditions: OR5M3, 500 μM n-hexanal, with the TAR-Tat system (hOR/pHEK), n = 1
T6 construct: Lucy tag (N); FLAG (N); Rho tag (N); expressed in transfected cells; host or cells: Flp-In T-REx-293 cells stably expressing RTP1S, Gαolf and Ric8-b
T6 sequence (Q8NGP4 1-307): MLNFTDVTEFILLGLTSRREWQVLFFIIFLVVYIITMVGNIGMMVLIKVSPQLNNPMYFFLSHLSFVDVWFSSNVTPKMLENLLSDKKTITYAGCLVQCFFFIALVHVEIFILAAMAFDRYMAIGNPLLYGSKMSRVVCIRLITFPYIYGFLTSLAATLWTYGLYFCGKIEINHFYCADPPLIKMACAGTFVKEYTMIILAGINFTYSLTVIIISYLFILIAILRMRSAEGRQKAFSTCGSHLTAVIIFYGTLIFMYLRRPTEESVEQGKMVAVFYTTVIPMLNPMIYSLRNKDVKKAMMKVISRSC
Method: as §1

[1] = with the TAR-Tat system (hOR/pHEK)
[2] = without the TAR-Tat system (control plasmid)

- response value (ΔL) (OR2M3): −620
- response value (ΔL) (OR5K1): > 500
- response value (ΔL) (OR1A1; [1]): 6675
- response value (ΔL) (OR1A1; [2]): 974
- response value (ΔL) (OR2Z1): > 500
- response value (ΔL) (OR5P3; [1]): 2931
- response value (ΔL) (OR5P3; [2]): 740
- response value (ΔL) (OR5M3): > 500
Structure (SMILES): CCCCCC=O [n-hexanal]
